Reference: patent US4559325A, “Purified antineoplaston fractions and methods of treating neoplastic disease” (priority 1984, dated 1985)
Where a name gives a salt, the structure may show the parent alone.

Tests used:
[1] = Acute toxicity studies in mice; details: mouse, in vivo, ip
Protocol: After a week, a select number of the mice were sacrificed.
Acute toxicity studies involving antineoplaston fractions A2-A5, antineoplaston A10 and degradation products were carried out in the same manner described above.

[2] = test system: Rd/3 sarcoma; details: rats, cited from earlier work

Structure (SMILES)	LD50 [1] [mg/kg]	enhancement of tumor growth ([2]; Rd/3 sarcoma)	effect on tumor growth, Rd/3 sarcoma ([2]; inhibition)
O=C1CCC(NC(=O)Cc2ccccc2)C(=O)N1 (stereo not drawn) [Antineoplaston A10, 3-[N-phenylacetylaminopiperidine]-2,6-dion]	10300		
O=C(O)Cc1ccccc1 [sodium salt of phenylacetic acid]		some enhancement of tumor growth	failed to inhibit tumor growth
